For this assay, the target named is T1, NanoLuc (Oplophorus gracilirostris, UniProt Q9GV45, A31E/A60N/A81I/F95D/I117V/K70R/L54V/L99Q/M102K/N193R/P142E/Q151K/Q38R/Q45L/V71I/Y165I).
T1 construct: Engineered 19 kDa subunit variant (NanoLuc, about 171 residues, no signal peptide)
The assay is described as follows: spectrofluorometric titration. In kind it is binding. The text has this: spectrofluorometric titration on NanoLuc

Where two headings read alike, the source gives them in different places.

T1 sequence (Q9GV45 28-196 with the stated changes): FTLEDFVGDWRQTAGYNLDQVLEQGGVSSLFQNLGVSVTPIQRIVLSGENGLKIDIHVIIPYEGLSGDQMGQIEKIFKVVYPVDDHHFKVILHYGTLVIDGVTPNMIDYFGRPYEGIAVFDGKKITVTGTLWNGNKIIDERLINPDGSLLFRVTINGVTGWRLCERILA

Take `O=C1/C(=C/c2ccc[nH]2)N=C(/C=C/c2ccccc2)N1Cc1ccccc1` (mixture of isomers) [4bc]: the Kd (read-out: [drawing 2] / [drawing 5] / 4bc) was 590 ± 40 nM.
On to `O=C1/C(=C/c2ccc[nH]2)N=C(/C=C/c2cccs2)N1Cc1ccccc1` (mixture of isomers) [4bh], for which the Kd (read-out: [drawing 2] / [drawing 4] / 4bh) turned out to be 320 ± 20 nM.
With `O=C1/C(=C/c2ccc[nH]2)N=C(/C=C/c2ccccc2)N1CCc1ccc(O)cc1` (mixture of isomers) [4cc], the Kd (read-out: [drawing 3] / [drawing 7] / 4cc) was 550 ± 40 nM.
